Measurements taken from patent US20260184663A1, “INDENE COMPOUNDS, PHARMACEUTICAL COMPOSITIONS THEREOF, AND THEIR THERAPEUTIC APPLICATIONS” (NucMito Pharmaceuticals co. Ltd., priority 2022, published 2026).

Columns and labels:
Format in all cases: cell-based
[1] = test system: B16F10 (malignant melanoma); assay: Antiproliferative activity (CCK-8 cell viability), B16F10; conditions: Mus musculus, 72 h, read-out: Antiproliferative activity in cancerous cells, B16F10 (inhibition of cell growth); for inhibition at 3.3 µM: B16-F10, Compound concentration: 3.3 μM; for inhibition at 10 µM: B16-F10, Compound concentration: 10 μM
Summary of the method: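 Cell growth inhibition was measured in B16F10 malignant melanoma cells with a Cell Counting Kit-8 viability assay. Cells were maintained in DMEM plus 10% fetal bovine serum, seeded at 2,000-5,000 cells/well in 96-well plates, and treated for 72 h at 37° C. Viability was expressed relative to DMSO-treated vehicle control wells.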

[2] = test system: alpha-smooth muscle actin (α-SMA); assay: Inhibition of TGF-β induced expression of alpha-smooth muscle actin (α-SMA) in CFSC cells (western blot); conditions: compound at 10 μM, TGF-β (10 ng/mL), 24 hours, band intensity vs TGF-β only
Summary of the method: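 Values are percent reduction of α-SMA band intensity relative to cells given TGF-β alone, quantified by Western blot densitometry with β-actin probed. Compound was applied at 10 μM alongside 10 ng/mL TGF-β to serum-free CFSC cultures for 24 h at 37 °C.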

[3] = test system: A431 (epidermoid carcinoma); assay: Antiproliferative activity (CCK-8 cell viability), A431; conditions: Homo sapiens, 72 h, read-out: Antiproliferative activity in cancerous cells, A431 (inhibition of cell growth); for inhibition at 3.3 µM: A-431, Compound concentration: 3.3 μM; for inhibition at 10 µM: A-431, Compound concentration: 10 μM
Summary of the method: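 This growth inhibition assay used A431 cells maintained in Dulbecco's modified Eagle's medium plus 10% fetal bovine serum. Cells were seeded in 96-well plates, treated with compound for 72 h at 37° C., and then given 10 μL CCK-8 solution. After a further 4 h, absorbance was read at 450 nm.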

[4] = test system: A549 (lung adenocarcinoma); assay: Antiproliferative activity (CCK-8 cell viability), A549; conditions: Homo sapiens, 72 h, read-out: Antiproliferative activity in cancerous cells, A549 (inhibition of cell growth); for inhibition at 3.3 µM: Compound concentration: 3.3 μM; for inhibition at 10 µM: Compound concentration: 10 μM
Summary of the method: (§1)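 Growth inhibition graded in bands from percent viability against DMSO vehicle, read as CCK-8 absorbance at 450 nm. Compound tested at 3.3, 10 or 30 μM for 72 h, 37 °C; media contained 10% FBS: DMEM for HepG2/SW480, MEM for HeLa, F-12K for A549.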

HepG2 (liver cancer) = assay: Antiproliferative activity (CCK-8 cell viability), HepG2; conditions: Homo sapiens, 72 h, read-out: Antiproliferative activity in cancerous cells, HepG2 (inhibition of cell growth); for inhibition at 3.3 µM: Compound concentration: 3.3 μM; for inhibition at 10 µM: Compound concentration: 10 μM
Summary of the method: as §1

SW480 (colon cancer) = assay: Antiproliferative activity (CCK-8 cell viability), SW480; conditions: Homo sapiens, 72 h, read-out: Antiproliferative activity in cancerous cells, SW480 (inhibition of cell growth); for inhibition at 3.3 µM: Compound concentration: 3.3 μM; for inhibition at 10 µM: Compound concentration: 10 μM
Summary of the method: as §1

[5] = test system: MDA-MB-231 (breast cancer); assay: Antiproliferative activity (CCK-8 cell viability), MDA-MB-231; conditions: Homo sapiens, 72 h, read-out: Antiproliferative activity in cancerous cells, MDA-MB-231 (inhibition of cell growth); for inhibition at 3.3 µM: Compound concentration: 3.3 μM; for inhibition at 10 µM: Compound concentration: 10 μM
Summary of the method: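 Growth inhibition of human MDA-MB-231 breast cancer cells was assessed with a Cell Counting Kit-8. Cells cultured in DMEM plus 10% FBS were seeded at 2,000-5,000 cells/well, treated after attachment, and kept 72 h at 37° C. CCK-8 solution (10 μL) was added for 4 h, and absorbance at 450 nm was compared with DMSO-treated controls.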

HeLa (cervical cancer) = assay: Antiproliferative activity (CCK-8 cell viability), HeLa; conditions: Homo sapiens, 72 h, read-out: Antiproliferative activity in cancerous cells, HELA (inhibition of cell growth); for inhibition at 3.3 µM: Compound concentration: 3.3 μM; for inhibition at 10 µM: Compound concentration: 10 μM
Summary of the method: as §1

| SMILES | inhibition at 3.3 µM [1] [%] | inhibition at 10 µM [1] [%] | inhibition at 10 µM [2] [%] | inhibition at 3.3 µM [3] [%] | inhibition at 10 µM [3] [%] | inhibition at 3.3 µM [4] [%] | inhibition at 10 µM [4] [%] | inhibition at 3.3 µM (HepG2 (liver cancer)) [%] | inhibition at 10 µM (HepG2 (liver cancer)) [%] | inhibition at 3.3 µM (SW480 (colon cancer)) [%] | inhibition at 10 µM (SW480 (colon cancer)) [%] | inhibition at 3.3 µM [5] [%] | inhibition at 10 µM [5] [%] | inhibition at 3.3 µM (HeLa (cervical cancer)) [%] | inhibition at 10 µM (HeLa (cervical cancer)) [%] | further results |
| --- | --- | --- | --- | --- | --- | --- | --- | --- | --- | --- | --- | --- | --- | --- | --- | --- |
| CC1=C(CC(=O)O)c2c(F)ccc(F)c2/C1=C/c1ccc(C(F)(F)F)cc1 [E15, (E)-2-(4,7-Difluoro-2-methyl-1-(4-(trifluoromethyl)benzylidene)-1H-inden-3-yl)-acetic acid] | < 30 | < 30 | < 30 | < 30 | < 30 | < 30 | < 30 | < 30 | < 30 | < 30 | < 30 | ≥ 50 | ≥ 50 | < 30 | 30 to 50 | inhibition at 30 µM ([1]; B16-F10, Compound concentration: 30 μM): ≥ 50%; inhibition at 30 µM ([3]; A-431, Compound concentration: 30 μM): ≥ 50%; inhibition at 30 µM ([4]; Compound concentration: 30 μM): ≥ 50%; inhibition at 30 µM (HepG2 (liver cancer); Compound concentration: 30 μM): < 30%; inhibition at 30 µM (SW480 (colon cancer); Compound concentration: 30 μM): < 30%; inhibition at 30 µM ([5]; Compound concentration: 30 μM): ≥ 50%; inhibition at 30 µM (HeLa (cervical cancer); Compound concentration: 30 μM): ≥ 50% |
| O=C(O)CC1=C(Cc2ccc(Oc3ccc(F)cc3)cc2)/C(=C/c2ccc(F)cc2)c2ccc(F)cc21 [A105, (Z)-2-(5-Fluoro-1-(4-fluorobenzylidene)-2-(4-(4-fluorophenoxy)benzyl)-1H-inden-3-yl)acetic acid] | ≥ 50 | ≥ 50 | > 80 | ≥ 50 | ≥ 50 | ≥ 50 | ≥ 50 | ≥ 50 | ≥ 50 | ≥ 50 | ≥ 50 | ≥ 50 | ≥ 50 | ≥ 50 | ≥ 50 |  |
| CCc1ccc(/C=C2/C(Cc3ccc(Oc4ccc(F)cc4)cc3)=C(CC(=O)O)c3cc(F)ccc32)cc1 [A104, (Z)-2-(1-(4-Ethylbenzylidene)-5-fluoro-2-(4-(4-fluorophenoxy)benzyl)-1H-inden-3-yl)acetic acid] | ≥ 50 | ≥ 50 | > 80 | ≥ 50 | ≥ 50 | ≥ 50 | ≥ 50 | ≥ 50 | ≥ 50 | ≥ 50 | ≥ 50 | ≥ 50 | ≥ 50 | ≥ 50 | ≥ 50 |  |
